Like-named read-outs stand apart in the source and are kept apart here.
Key:
[1] = tested on: Plasmodium falciparum, Sierra Leone clone; experiment: Increase in parasitemia by light microscopy (Giemsa-stained smears), Sierra Leone clone; format: cell-based, P. falciparum; conditions: Table 2, light microscopy
Procedure: Additionally, parasite-infected and treated erythrocytes can be smeared on microscope slides, stained with, e.g., Giemsa stain, and the ratio of infected to non-infected erythrocytes determined.
The chloroquine-sensitive Sierra Leone clone of P. falciparum was cultured in erythrocytes as in Example 1 above. In one method of determining the toxicity of 5-fluoro-orotate, [G-^3 H]-hypoxanthine uptake was used as an indicator of parasite proliferation, according to the procedure of Example 1 above. In a second method, the increase in parasitemia was determined directly by smearing infected erythrocytes on microscope slides, staining with Giemsa stain, and determining the ratio of infected to non-infected erythrocytes. In a third method, parasite-infected erythrocytes were incubated with [U-^14 C]-isoleucine (0.5 μCi; 0.33 Ci/mmol), and the amount of radioactivity incorporated into precipitable proteins determined.

[2] = tested on: HT-1080 human fibrosarcoma cells; experiment: Toxicity to cultured HT-1080 cells, number of viable cells; format: cell-based; conditions: for IC50: Homo sapiens
Procedure: Each data point represents an average of two determinations. […] Each data point represents an average of two determinations.
Half shaded symbols represent overlapping data points.
Toxicity of pyrimidine analogues to cultured human cells is determined as follows. Mammalian cells are seeded into culture plate wells, and growth medium is added. The following day, fresh culture medium containing the appropriate pyrimidine analogues is added to the wells, and the plates incubated for a period of time and at a temperature appropriate to the cell line and the experimental requirements. Thereafter, the number of cells in each well is determined. […] Cells that grow in suspension (e.g., HL-60 and L-1210 cells) are transferred to centrifuge tubes, pelleted at low speed, washed, and the viability determined as above.
HT-1080 cells were seeded into 6-well culture plates at a density of 50,000 cells per 9.6 cm^2 well. Each well contained 2.5 ml of growth medium. […] After 1 minute, the detached cells were suspended in 1.0 ml of EMEM and collected by centrifugation at 300×g for 3 minutes. […] The concentrations of viable cells were determined in a hemocytometer.

[3] = Pharmacokinetics of 5-fluoro-orotate in mice; format: in vivo, Swiss white mice
Procedure: FIG. 3 illustrates time-dependant changes in plasma 5-fluoroorotate concentration following single intraperitoneal injections of 5-fluoro-orotate at 0.2 mg/kg (.box-solid.), 1 mg/kg (.diamond-solid.), or 5 mg/kg (.tangle-solidup.). Two mice were used at each dosage level. At each time point, duplicate 200 μl samples of blood were drawn and analyzed for 5-fluoro-orotate concentration.
Several types of in vivo experiments in intact vertebrates can be used to test the effectiveness in vivo of the anti-malarial compositions of this invention. In one in vivo test system, dosage regimens for pyrimidine analogues are estimated by determining the pharmacokinetics of the drugs. Normal and malaria parasite-infected animals (preferably mice, but other rodents can be used) are injected once (preferably intraperitoneally, but subcutaneous or intravenous administration is also suitable) with the drug at various doses, e.g, from 0 to about 10 mg/kg body weight, preferably from about 0.2 to about 5 mg/kg body weight. At various time points (preferably from about 3 to about 180 minutes), blood samples are drawn from the animals and the amount of the drug in the plasma fraction determined as described in Example 7 below. The concentration of drug is plotted as a function of time for each drug dosage.
Pairs of Swiss white mice (Charles River Labs, Mass.) were injected intraperitoneally with 200 μl of [2-^14 C]-5-fluoro-orotate in saline (55 μCi/μmol). Single injections of the drug were made at dosages of 0.2, 1 and 5 mg/kg body weight. At time points ranging from about 3 to about 180 minutes, two 200 μl blood samples were drawn from the tail veins of the mice, and the amount of 5-fluoro-orotate present in the plasma determined, as described below.
Blood samples were immediately diluted in 100 μl of cold saline, and centrifuged in a desk top Eppendorf centrifuge for 1 minute to separate the plasma fraction from blood cells. Cell pellets were washed with 100 μl of saline, centrifuged, and the supernatant fractions mixed with plasma fractions. In order to determine the 5-fluoro-orotate concentrations of the diluted plasma fractions, the radioactive content of half the samples was determined by liquid scintillation spectrometry. The remaining samples were chromatographed on a Pharmacia FPLC system using a Mono Q anion-exchange column.

[4] = Host toxicity in P. yoelii-infected mice (diarrhea, weight loss, tolerance); format: in vivo, Swiss white mice
Procedure: FIG. 6 illustrates the weight changes in mice receiving 5 mg/kg of 5-fluoro-orotate without (Δ) or with (.tangle-solidup.) uridine. The pyrimidine analogue was administered on days 3 to 6. The pyrimidine nucleoside was given to mice in experiment 2 on days 3 to 9. Data points represent mean weights of mice that remained alive during the course of experiments 1 and 2 (see FIG. 5C). Error bars represent standard deviations from the mean.
A second in vivo test system can be used to determine if repeated administration of the pyrimidine analogue would have safe anti-malarial activity. In this test system, groups of animals are infected with malaria parasites. At a time when blood parasitemia is reached, the animals are injected with saline alone (control) or with various concentrations of one or more pyrimidine analogues alone or together with one or more rescuing pyrimidine bases or nucleosides at a single concentration, at intervals, over a period of several days. In order to determine the prophylactic effectiveness of the rescuing pyrimidine base or nucleoside, the animals are pretreated with such a base or nucleoside prior to the administration of the pyrimidine analogue. Anti-malarial activity of the treatments is estimated by determining blood parasitemia on the animals at appropriate times. The safety of the treatments is estimated by monitoring animals for weight loss and diarrhea, as these are early symptoms of pyrimidine analogue toxicity [Houghton, J. A., et al., Cancer Res., 39:2406-13 (1979)].
Swiss white mice (25-30 g) were divided into groups of five. On day 0, each mouse was infected by intraperitoneal injection of 10^5 erythrocytic forms of P. yoelii. Starting on day 3, when the blood parasitemia had reached between 5 and 12%, the mice were injected intraperitoneally every 4 hours for three consecutive days with 200 μl of various formulations. In experiment 1, three groups of mice received 0.2, 1, or 5 mg/kg of 5-fluoro-orotate per injection, respectively. An accompanying control group received saline. In experiment 2, three groups of mice received 0.2, 1, or 5 mg/kg of 5-fluoro-orotate plus 800 mg/kg of uridine in a 200 μl saline formulation. An accompanying control group received 800 mg/kg of uridine alone. In experiment 2, mice were pretreated with one injection of 800 mg/kg of uridine two hours before receiving the first injection of 5-fluoro-orotate. Additionally, even though treatment with the pyrimidine analogue stopped on day 6, these mice continued to receive 1500 mg/kg of uridine, three times a day, for three additional days (i.e., up to day 9).

In the case of `O=C(O)c1[nH]c(=O)[nH]c(=O)c1F` [5-fluoro-orotate], the IC50 [1] is reported as 0.0025 µM, the “decrease of cytotoxicity by 1 mM uridine” value ([2]; HT-1080, 48 h, simultaneous 1 mM uridine (FIG. 2)) is reported as 5 -fold and the IC50 ([2]; HT-1080, 48 h, read-out: IC50 (50% inhibition)) is reported as about 10 µM. For the same molecule, the IC50 ([2]; HT-1080, read-out: IC50 With 1 mM Uridine) was 50 µM, the IC50 ([2]; HT-1080, read-out: IC50 Without Uridine) was 10 µM and the “identity of plasma radioactivity” value ([3]; 90 minutes after injection, Mono Q chromatography) was “radioactivity in the plasma fraction was due to 5-fluoro-orotate and not some secondary metabolite of the experimental drug”. For the same molecule, the “plasma pharmacokinetic profile in infected mice” value ([3]; P. yoelii infected (10% parasitemia), 1 mg/kg, vs uninfected mice) was “essentially the same as that of uninfected mice”, the “circulating radioactivity associated with blood cells” value ([3]; [2-14C]-5-fluoro-orotate i.p.) was “below 10%” and the half-life ([3]; mouse, ip, single i.p. dose, plasma, mice, read-out: t1/2 (loss from the circulation)) was about 1.5 h. For the same molecule, the concentration at 1 h ([3]; mouse, plasma, ip, 0.2 mg/kg i.p., within 60 minutes, read-out: drug concentration within 60 minutes) was under 0.5 µM, the Cmax ([3]; mouse, plasma, ip, 0.2 mg/kg i.p., read-out: maximum drug concentration) was at most 2 µM and the Cmax ([3]; mouse, plasma, ip, single i.p. 5 mg/kg, read-out: peak plasma concentration) was about 30 µM. For the same molecule, the Tmax ([3]; mouse, plasma, ip, single i.p. 0.2, 1, 5 mg/kg, all dosages, read-out: time of peak plasma concentration) was at most 0.333 h, the concentration ([3]; single i.p. 5 mg/kg, read-out: plasma concentration after rapid drop) was under 10 µM and the “tolerance of highest dose” value ([4]; 5 mg/kg every 4 hours) was “tolerated only when uridine was administered in combination with 5-fluoro-orotate”. For the same molecule, the “mortality at higher doses” value ([4]; experiment 1, 1 and 5 mg/kg, no uridine) was “dose-dependent increase in mortality”, the “diarrhea in surviving mice” value ([4]; experiment 1, higher doses, no uridine) was “showed signs of diarrhea” and the weight loss ([4]; experiment 2, 5 mg/kg with uridine (FIG. 6)) was “no weight loss”. The diarrhea ([4]; experiment 2, with uridine) was “no mouse had diarrhea”.

Source: US6159953A, “Anti-malarial composition and method of use” (Catholic University of America, priority 1992, dated 2000)
